Data set [1] can be described thus: Cytotoxicity against human diploid fibroblast cells at 100 ug/ml. It is filed as cell-based.
Data set [2] can be described thus: Cytotoxicity against human diploid fibroblast cells assessed as cytopathic effect at 12.5 ug/ml. It is filed as cell-based. For orientation: Cytopathic effects are the visible damage that an infection or toxin causes in cultured cells.
Another data set concerns Candida albicans. In words: Antimicrobial activity against Candida albicans by standard agar dilution method. It is filed as functional.
For another data set, the system named is Aspergillus fumigatus. In words: Antimicrobial activity against Aspergillus fumigatus by standard agar dilution method. In kind it is functional.

The structures appear in SMILES notation. Converted amounts (≈) assume the structure as drawn.

As to `C[C@@H]1[C@H](O)[C@@H](C)/C=C/C=C/C=C/C=C/C=C/C=C/C=C/[C@H](O[C@@H]2O[C@H](C)[C@@H](O)[C@H](N)[C@@H]2O)C[C@@H]2O[C@](O)(C[C@@H](O)C[C@@H](O)[C@H](O)CC[C@@H](O)C[C@@H](O)CC(=O)O[C@H]1C)C[C@H](O)[C@H]2C(=O)O` [AMPHOTERICIN B], the Activity entry in data set [1] and in data set [2] was “Toxic” in each case.
What is called MIC is the lowest concentration found to suppress growth. Low values mean greater potency, high ones weaker potency. Take `CC[C@@H](C)[C@H](OC(=O)/C=C/c1ccccc1)[C@H](C)[C@H](O)C/C=C/C=C\C(N)=O` [BASILISKAMIDE A]: the results for the MIC against Candida albicans and with Aspergillus fumigatus were 1 µg/mL (≈ 2.59 µM) and 2.5 µg/mL (≈ 6.49 µM), respectively.
`CC[C@@H](C)[C@H](O)[C@H](C)[C@@H](C/C=C/C=C\C(N)=O)OC(=O)/C=C/c1ccccc1` [BASILISKAMIDE B]: the MIC in the data set on Candida albicans came to 3.1 µg/mL (≈ 8.04 µM); in the data set with Aspergillus fumigatus it was 5 µg/mL (≈ 13 µM).

For the origin of these results see ChEMBL document CHEMBL1150655, “Tupuseleiamides and basiliskamides, new acyldipeptides and antifungal polyketides produced in culture by a Bacillus laterosporus isolate obtained from a tropical marine habitat” (J Nat Prod, 2002).
